In publication PMC12290954, “Synthesis, Characterization, Computational Evaluation, CO-Releasing Properties, and Molecular Docking Interactions of New [Mn(CO)3(bpy)L]PF6‑Type Molecules” (ACS Omega, 2025):

These molecules were tested on CT-DNA (assay: DNA binding analysis, UV-vis, Benesi-Hildebrand method). Settings: 25 μM DNA, 0-35 μM complex, Tris-HCl pH 7.4, 1 h room temperature, absorbance at 260 nm.
Description: DNA-binding properties of the molecules were analyzed with the Benesi–Hildebrand method with UV–vis spectroscopy. The stock solution of manganese complexes (3 mM) was prepared with DMSO, while a fresh stock solution of DNA from commercial CT-DNA was prepared in Tris-HCl buffer solution (pH = 7.4), and the ratio of A 260/A 280 of the DNA stock was recorded as 1.93. A certain concentration of DNA (25 μM) solution was incubated with different amounts of each complex (0, 5, 10, 15, 20, 25, 30, and 35 μM) for 1 h at room temperature. The absorption spectra of all solutions were recorded using a Shimadzu UV-1800 spectrophotometer between 240 and 500 nm.
In this study, the DNA-binding affinity of the molecules was also confirmed with a UV–vis spectrophotometer. […] While small fluctuations for 300 μM of each complex were recorded upon the addition of DNA solutions with different concentrations (0, 20, 40, 60, 80, 100, 120, and 140 μM) at 388 nm (Figures S6–S10), remarkable changes were detected at 260 nm, which is characteristic of DNA.
Here, A o is the absorbance of DNA in the absence of the manganese complex, A obs is the absorbance of DNA at 260 nm with different amounts of the molecules, [M] is the molar concentration of the molecules, and K b is the binding constant. […] These binding constants are moderately available for DNA-target drug candidates.

| Molecule | DNA binding constant K b |
| --- | --- |
| C=CCn1c[n+]([Mn-2]2(=[C]=O)(=[C]=O)(=[C]=O)[n+]3ccccc3-c3cccc[n+]32)c2ccccc21.F[P-](F)(F)(F)(F)F [2b, [Mn(CO)3(bpy)(1-allylbenzimidazole)]PF6] | 2.2 × 10^4 M^–1 |
| [Mn(CO)3(bpy)(1-(2-metallyl)benzimidazole)]PF6 [2c] | 1.8 × 10^4 M^–1 |
| [Mn(CO)3(bpy)(1-(2-vinyloxyethyl)benzimidazole)]PF6 [2e] | 2.7 × 10^4 M^–1 |
| [Mn(CO)3(bpy)(1-(3,3-dimethylallyl)benzimidazole)]PF6 [2d] | 2.4 × 10^4 M^–1 |
| [Mn(CO)3(bpy)(1-isopropylbenzimidazole)]PF6 [2a] | 3.2 × 10^4 M^–1 |

The molecules below were run against BSA (Bos taurus, UniProt P02769) (assay: BSA binding analysis, UV-vis, Benesi-Hildebrand method). Settings: 15 μM BSA, 0-14 μM complex, PBS pH 7.4, 20 min room temperature, band at 280 nm.
Design: species or system bovine
Description: BSA binding analysis of the molecules was performed with UV–vis spectroscopy, and the records were evaluated using the Benesi-Hildebrand equation. The BSA stock solution was freshly prepared in phosphate-buffered saline (pH 7.4), while the stock solutions of the molecules were prepared in DMSO. A certain BSA solution (15 μM) was incubated with each molecule at different concentrations (0, 2, 4, 6, 8, 10, 12, and 14 μM) for 20 min at room temperature. The absorption spectra of all solutions were recorded between 250 and 350 nm.

BSA, sequence (P02769 25-607): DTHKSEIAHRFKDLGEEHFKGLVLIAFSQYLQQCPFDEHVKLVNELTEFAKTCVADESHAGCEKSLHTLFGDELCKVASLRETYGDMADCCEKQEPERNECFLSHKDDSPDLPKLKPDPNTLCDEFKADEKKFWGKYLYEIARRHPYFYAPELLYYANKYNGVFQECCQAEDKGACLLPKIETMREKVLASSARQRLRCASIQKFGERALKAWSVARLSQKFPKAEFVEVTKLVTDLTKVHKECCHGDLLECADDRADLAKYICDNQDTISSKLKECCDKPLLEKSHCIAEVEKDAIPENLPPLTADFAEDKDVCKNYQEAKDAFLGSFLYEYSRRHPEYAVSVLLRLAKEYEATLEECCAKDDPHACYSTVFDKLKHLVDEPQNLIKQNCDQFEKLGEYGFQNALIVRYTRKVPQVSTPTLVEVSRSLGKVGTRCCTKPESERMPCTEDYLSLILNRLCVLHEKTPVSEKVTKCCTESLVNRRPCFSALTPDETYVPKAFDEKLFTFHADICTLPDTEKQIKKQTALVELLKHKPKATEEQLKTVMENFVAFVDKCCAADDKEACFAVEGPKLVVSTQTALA

| Molecule | BSA binding constant |
| --- | --- |
| C=CCn1c[n+]([Mn-2]2(=[C]=O)(=[C]=O)(=[C]=O)[n+]3ccccc3-c3cccc[n+]32)c2ccccc21.F[P-](F)(F)(F)(F)F [2b, [Mn(CO)3(bpy)(1-allylbenzimidazole)]PF6] | 4.3 × 10^4 M^–1 |
| [Mn(CO)3(bpy)(1-(2-metallyl)benzimidazole)]PF6 [2c] | 4.0 × 10^4 M^–1 |
| [Mn(CO)3(bpy)(1-(2-vinyloxyethyl)benzimidazole)]PF6 [2e] | 3.9 × 10^4 M^–1 |
| [Mn(CO)3(bpy)(1-(3,3-dimethylallyl)benzimidazole)]PF6 [2d] | 8.2 × 10^4 M^–1 |
| [Mn(CO)3(bpy)(1-isopropylbenzimidazole)]PF6 [2a] | 3.6 × 10^4 M^–1 |

What follows are molecules tested on deoxymyoglobin (assay: Myoglobin assay, CO release under 365 nm UV light). Settings: 365 nm lamp; 15 μM complex, 60 μM myoglobin reduced with sodium dithionite, pH 7.4.
Description: The myoglobin solution, which was prepared in PBS (pH 7.4, 0.1 M), was reduced to deoxymyoglobin using sodium dithionite (100 mM). The solutions of each complex ([…]) in DMSO were incubated with deoxymyoglobin solution ([…]), and the final solution was exposed to 365 nm UV light from a distance of 2 cm. Deoxymyoglobin has a band at 557 nm, while carbonmonoxy-myoglobin has two identical bands at 540 and 577 nm, and the changes at these wavelengths make the process observable and determinable. Thus, the CO-releasing properties of the molecules were calculated using the Lambert–Beer Law.
The commonly used method for determining the CO-releasing of a molecule is UV–visible spectroscopy. There are various ways for releasing CO from a molecule such as substitution, decomposition, and photoactivation. , Manganese carbonyl complexes are known as photoactivatable CO-releasing molecules (photoCORM). A photoCORM must be stable in the dark while it releases CO upon exposure to light of a certain wavelength. […] The basic principle of the myoglobin assay is based on the formation of carbon monoxymyoglobin with the interaction of deoxymyoglobin with CORMs by the spectrophotometric method. […] A 15 μM solution of the complexes was incubated with a 60 μM myoglobin solution reduced with sodium dithionite in a pH 7.4 buffered medium, and the change was followed by the spectroscopic method. The CO-releasing properties of a molecule could be evaluated from two perspectives: the first is how fast the molecule’s release is, and the second is how high the rate of the releasing is.

| Molecule | [MbCO] |
| --- | --- |
| C=CCn1c[n+]([Mn-2]2(=[C]=O)(=[C]=O)(=[C]=O)[n+]3ccccc3-c3cccc[n+]32)c2ccccc21.F[P-](F)(F)(F)(F)F [2b, [Mn(CO)3(bpy)(1-allylbenzimidazole)]PF6] | 39.51 µM |
| [Mn(CO)3(bpy)(1-(2-metallyl)benzimidazole)]PF6 [2c] | 39.81 µM |
| [Mn(CO)3(bpy)(1-(2-vinyloxyethyl)benzimidazole)]PF6 [2e] | 40.41 µM |
| [Mn(CO)3(bpy)(1-(3,3-dimethylallyl)benzimidazole)]PF6 [2d] | 30.34 µM |
| [Mn(CO)3(bpy)(1-isopropylbenzimidazole)]PF6 [2a] | 34.64 µM |

Same assay, conditions: 365 nm lamp; 15 μM complex, 60 μM myoglobin, pH 7.4

| Molecule | Half-life t 1/2 (50% of total CO release) | Released-CO Equivalent |
| --- | --- | --- |
| C=CCn1c[n+]([Mn-2]2(=[C]=O)(=[C]=O)(=[C]=O)[n+]3ccccc3-c3cccc[n+]32)c2ccccc21.F[P-](F)(F)(F)(F)F [2b, [Mn(CO)3(bpy)(1-allylbenzimidazole)]PF6] | 4.85 min | 2.63 |
| [Mn(CO)3(bpy)(1-(2-metallyl)benzimidazole)]PF6 [2c] | – | 2.65 |
| [Mn(CO)3(bpy)(1-(2-vinyloxyethyl)benzimidazole)]PF6 [2e] | – | 2.69 |
| [Mn(CO)3(bpy)(1-(3,3-dimethylallyl)benzimidazole)]PF6 [2d] | – | 2.02 |
| [Mn(CO)3(bpy)(1-isopropylbenzimidazole)]PF6 [2a] | 4.02 min | 2.30 |

Same assay, conditions: 365 nm lamp; percent of the total CO

| Molecule | Released-CO Percent |
| --- | --- |
| C=CCn1c[n+]([Mn-2]2(=[C]=O)(=[C]=O)(=[C]=O)[n+]3ccccc3-c3cccc[n+]32)c2ccccc21.F[P-](F)(F)(F)(F)F [2b, [Mn(CO)3(bpy)(1-allylbenzimidazole)]PF6] | 88% |
| [Mn(CO)3(bpy)(1-(2-metallyl)benzimidazole)]PF6 [2c] | 88% |
| [Mn(CO)3(bpy)(1-(2-vinyloxyethyl)benzimidazole)]PF6 [2e] | 90% |
| [Mn(CO)3(bpy)(1-(3,3-dimethylallyl)benzimidazole)]PF6 [2d] | 67% |
| [Mn(CO)3(bpy)(1-isopropylbenzimidazole)]PF6 [2a] | 77% |
